Data reported in PubChem BioAssay (NCI).
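Compound exposure: 48 hours, 5 concentrations, 96-well plates. The concentration for 50% growth inhibition is given as GI50. The concentration for full growth arrest is given as TGI.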

Experiments:
Experiment in all cases: NCI tumour cell line growth inhibition, 48 h
HL-60(TB) leukemia = tested on: HL-60(TB) leukemia
SF-268 CNS = tested on: SF-268 CNS
MALME-3M melanoma = tested on: MALME-3M melanoma
NCI-H460 lung = tested on: NCI-H460 lung
HCC-2998 colon = tested on: HCC-2998 colon
M14 melanoma = tested on: M14 melanoma
KM12 colon = tested on: KM12 colon
K-562 leukemia = tested on: K-562 leukemia
UACC-62 melanoma = tested on: UACC-62 melanoma
SK-MEL-5 melanoma = tested on: SK-MEL-5 melanoma

Row | Structure (SMILES) | TGI (HL-60(TB) leukemia) [µM] | TGI (SF-268 CNS) [µM] | TGI (MALME-3M melanoma) [µM] | TGI (NCI-H460 lung) [µM] | TGI (HCC-2998 colon) [µM] | TGI (M14 melanoma) [µM] | TGI (KM12 colon) [µM] | TGI (K-562 leukemia) [µM] | TGI (UACC-62 melanoma) [µM] | TGI (SK-MEL-5 melanoma) [µM] | GI50 (HL-60(TB) leukemia) [µM] | GI50 (SF-268 CNS) [µM] | GI50 (MALME-3M melanoma) [µM] | GI50 (NCI-H460 lung) [µM] | GI50 (HCC-2998 colon) [µM] | GI50 (M14 melanoma) [µM] | GI50 (KM12 colon) [µM] | GI50 (K-562 leukemia) [µM] | GI50 (UACC-62 melanoma) [µM] | GI50 (SK-MEL-5 melanoma) [µM]
1 | N#CC(C(=O)Nc1ccccc1)C1=C(Cl)C(=O)c2ccccc2C1=O (stereo not given) | 20.5 | 31 | 26.7 | > 100 | 45.9 | 30.3 | 50.7 | 52.5 | 33.3 | 30.2 |  |  |  |  |  |  |  |  |  | 
2 | CN(C)CCCOc1ccc(NC2=C(Cl)C(=O)C(Nc3ccc(OCCCN(C)C)cc3)=C(Cl)C2=O)cc1 | 2.02 | 3.17 | 0.935 | 2.55 | 2.09 | 2.9 | 2.25 | 0.798 | 3.09 | 2.59 | 0.732 | 1.56 | 0.336 | 0.872 | 0.769 | 1.45 | 0.801 | 0.276 | 1.61 | 1.31
3 | CC(=O)Nc1cccc(C#Cc2cncnc2Nc2ccc(OCc3cccc(F)c3)c(Cl)c2)c1 | > 25 | > 25 | > 25 | > 25 | > 25 | > 25 | > 25 | > 25 | > 25 | > 25 | 7.59 | 16.6 | 12.5 | 8.94 | 7.94 | 10.8 | 9.64 | 8.96 | 8.88 | 8.12
4 | OC1=CN=C(c2ccccc2)Oc2ccccc21 | > 100 | > 100 | > 100 | > 100 | > 100 | > 100 | > 100 | > 100 | > 100 | > 100 |  |  |  |  |  |  |  |  |  | 
5 | CCC(Oc1ccc(OC)c2c1C(=O)CCC2)C(=O)O (stereo not given) | > 100 | > 100 | > 100 | > 100 | > 100 | > 100 | > 100 | > 100 | > 100 | > 100 |  |  |  |  |  |  |  |  |  | 
6 | S=C(Sc1ccc(Cl)cc1)Sc1ccc(Cl)cc1 | 8.62 | 6.6 | 4.8 | 13.4 | 10.3 | 3.95 | 8.64 | 7.63 | 10.6 | 3.11 | 1.93 | 2.1 | 2.31 | 3.12 | 3.08 | 2.03 | 2.74 | 1.87 | 3.15 | 1.68
7 | N#CN1CC[C@H](C(=O)Nc2ncc(-c3ccccc3)s2)C1 | 0.652 | 4.23 | 1.42 | 2.47 | 2.58 | 2.22 | 2.78 | 11 | 2.18 | 3.58 | 0.269 | 0.789 | 0.232 | 0.423 | 1.09 | 0.495 | 0.592 | 0.455 | 0.371 | 0.829
8 | O=[N+]([O-])c1cccnc1S(=O)(=O)c1ccccc1 | 7.01 | 27.3 | 23.8 | 27.8 | 39.6 | 22.5 | 36.3 | > 43.8 | 23.9 | 32.6 |  |  |  |  |  |  |  |  |  | 
9 | CC(C)(C)C1=NO[C@H]2[C@@H](NC(=O)c3ccccc3)CC[C@@H]12 | > 100 | > 100 | > 100 | > 100 | > 100 | > 100 | > 100 | > 100 | > 100 | > 100 |  |  |  |  |  |  |  |  |  | 
10 | CNC(=O)OCc1nc(SSc2nc(COC(=O)NC)c(COC(=O)NC)n2C)n(C)c1COC(=O)NC | > 100 | > 100 | > 100 | > 100 | > 100 | > 100 | > 100 | > 100 | > 100 | > 100 |  |  |  |  |  |  |  |  |  | 
11 | Cn1cc(-c2ccc3ncc(-c4ccc(CC(=O)Nc5cc(C(C)(C)C)nn5C)cc4)cc3c2)cn1 | 8.28 | > 20 | > 20 | > 20 | > 20 | > 20 | 3 | > 20 | 6.65 | 3 | 1.2 | 1.45 | 0.721 | 0.786 | 2.73 | 0.984 | 0.151 | 1.13 | 1.26 | 0.756
12 | COCc1cc2c(s1)C(=O)C1=C(C2=O)C2(C=C(Br)C(=O)C(Br)=C2)CCN1 | 16.3 | 17.8 | 2.23 | 14.5 | 24.8 | 4.32 | 17.9 | 9.32 | 3.08 | 5.62 |  |  |  |  |  |  |  |  |  | 
13 | CCCCCCCCCCCCCCCC(=O)OCC1OC(n2cc(F)c(=O)[nH]c2=O)C(NC(=O)OCc2ccccc2)C(O)C1O (stereo not given) | 43.1 | 54 | 9.44 | 38.9 | 31.9 | 33.1 | 45 | 31.8 | 35.3 | 36.1 |  |  |  |  |  |  |  |  |  | 
